In US20240239861A1, “GLUCAGON-RECEPTOR SELECTIVE POLYPEPTIDES AND METHODS OF USE THEREOF” (i2O Therapeutics, Inc., priority 2016, published 2024):
Where a SMILES comes first, the peptide text is derived from it. [ ]: non-standard residue; d: D form. Aib = CC(C)(N)C(=O)O

Assays:
human GCGR = human GCGR (Homo sapiens, UniProt P47871); test: Peptide-receptor mediated cAMP accumulation (LANCE Ultra cAMP) in CHO-K1 cells transfected with human GCGR; type: cell-based; details: Table 3
human GLP-1R = human GLP-1R (Homo sapiens, UniProt P43220); test: Peptide-receptor mediated cAMP accumulation (LANCE Ultra cAMP) in CHO-K1 cells transfected with human GLP-1R; type: cell-based; details: hGLP1 pEC50 (cAMP mean (n = 3): 11 point curve starting at 1 nM, Table 3)
Chain of human GLP-1R (P43220 24-463): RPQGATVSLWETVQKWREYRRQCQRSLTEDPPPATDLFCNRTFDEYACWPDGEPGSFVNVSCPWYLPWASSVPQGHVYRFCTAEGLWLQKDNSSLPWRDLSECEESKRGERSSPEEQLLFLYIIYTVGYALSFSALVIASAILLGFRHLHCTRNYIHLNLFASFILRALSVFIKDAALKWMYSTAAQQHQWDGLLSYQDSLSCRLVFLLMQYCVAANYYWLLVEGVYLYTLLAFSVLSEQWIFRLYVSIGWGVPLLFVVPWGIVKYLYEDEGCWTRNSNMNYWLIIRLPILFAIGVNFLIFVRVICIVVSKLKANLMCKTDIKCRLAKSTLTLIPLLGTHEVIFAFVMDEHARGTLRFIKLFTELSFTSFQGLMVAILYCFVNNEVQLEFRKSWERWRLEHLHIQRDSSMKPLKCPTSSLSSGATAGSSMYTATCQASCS

Chain of human GCGR (P47871 26-477): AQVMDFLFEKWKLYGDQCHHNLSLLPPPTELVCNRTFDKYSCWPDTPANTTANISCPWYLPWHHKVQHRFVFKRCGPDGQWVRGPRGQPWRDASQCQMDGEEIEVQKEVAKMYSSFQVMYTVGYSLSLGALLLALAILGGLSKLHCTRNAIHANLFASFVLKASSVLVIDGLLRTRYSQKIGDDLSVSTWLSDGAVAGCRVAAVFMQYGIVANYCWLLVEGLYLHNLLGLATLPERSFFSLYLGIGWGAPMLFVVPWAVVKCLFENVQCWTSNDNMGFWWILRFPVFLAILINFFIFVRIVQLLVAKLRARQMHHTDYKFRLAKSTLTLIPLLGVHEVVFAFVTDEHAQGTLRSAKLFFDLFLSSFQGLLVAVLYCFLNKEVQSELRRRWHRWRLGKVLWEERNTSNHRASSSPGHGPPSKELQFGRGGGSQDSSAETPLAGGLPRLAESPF

SMILES | EC50 (human GCGR) | EC50 (human GLP-1R)
CC(C)C[C@H](NC(=O)[C@H](Cc1ccc(O)cc1)NC(=O)[C@H](CCCCN)NC(=O)[C@H](CO)NC(=O)[C@H](Cc1ccc(O)cc1)NC(=O)[C@H](CC(=O)O)NC(=O)[C@H](CO)NC(=O)[C@@H](NC(=O)[C@H](Cc1ccccc1)NC(=O)[C@@H](NC(=O)CNC(=O)[C@H](Cc1c[nH]cn1)NC(=O)[C@@H](NC(=O)[C@@H](N)Cc1ccc(O)cc1)[C@@H](C)O)[C@@H](C)O)[C@@H](C)O)C(=O)N[C@@H](CC(=O)O)C(=O)NC(C)(C)C(=O)N[C@@H](CCCCN)C(=O)N[C@@H](CCCNC(=N)N)C(=O)N[C@@H](C)C(=O)N[C@@H](CCC(N)=O)C(=O)N[C@@H](CCC(=O)O)C(=O)N[C@@H](Cc1ccccc1)C(=O)N[C@H](C(=O)NC(C)(C)C(=O)N[C@@H](Cc1c[nH]c2ccccc12)C(=O)N[C@@H](CC(C)C)C(=O)N[C@@H](CCC(=O)O)C(=O)N[C@@H](CC(=O)O)C(=O)N[C@@H](CCC(=O)O)C(=O)N1CCC[C@H]1C(=O)N[C@@H](CO)C(=O)N[C@@H](CO)C(=O)NCC(=O)N[C@@H](C)C(=O)N1CCC[C@H]1C(=O)N1CCC[C@H]1C(=O)N1CCC[C@H]1C(=O)N[C@@H](CO)C(=O)O)C(C)C [Compound A62] (H-YTHGTFTSDYSKYLD[Aib]KRAQEFV[Aib]WLEDEPSSGAPPPS-OH; N-terminus assumed) | 3.16 pM | > 1000 pM
CC(C)C[C@H](NC(=O)[C@H](Cc1ccc(O)cc1)NC(=O)[C@H](CCCCN)NC(=O)[C@H](CO)NC(=O)[C@H](Cc1ccc(O)cc1)NC(=O)[C@H](CC(=O)O)NC(=O)[C@H](CO)NC(=O)[C@@H](NC(=O)[C@H](Cc1ccccc1)NC(=O)[C@@H](NC(=O)CNC(=O)[C@H](Cc1c[nH]cn1)NC(=O)[C@@H](NC(=O)[C@@H](N)Cc1ccc(O)cc1)[C@@H](C)O)[C@@H](C)O)[C@@H](C)O)C(=O)N[C@@H](CC(=O)O)C(=O)N[C@@H](CO)C(=O)N[C@@H](C)C(=O)N[C@@H](CCCNC(=N)N)C(=O)N[C@@H](C)C(=O)N[C@@H](CCC(N)=O)C(=O)N[C@@H](CCC(=O)O)C(=O)N[C@@H](Cc1ccccc1)C(=O)N[C@H](C(=O)N[C@@H](CCCCN)C(=O)N[C@@H](Cc1c[nH]c2ccccc12)C(=O)N[C@@H](CC(C)C)C(=O)N[C@@H](CCC(=O)O)C(=O)N[C@@H](CC(=O)O)C(=O)N[C@@H](CCC(=O)O)C(=O)N1CCC[C@H]1C(=O)N[C@@H](CO)C(=O)N[C@@H](CO)C(=O)NCC(=O)N[C@@H](C)C(=O)N1CCC[C@H]1C(=O)N1CCC[C@H]1C(=O)N1CCC[C@H]1C(=O)N[C@@H](CO)C(=O)O)C(C)C [Compound A63] (H-YTHGTFTSDYSKYLDSARAQEFVKWLEDEPSSGAPPPS-OH) | 39.8 pM | > 1000 pM
CC(C)C[C@H](NC(=O)[C@H](Cc1ccc(O)cc1)NC(=O)[C@H](CCCCN)NC(=O)[C@H](CO)NC(=O)[C@H](Cc1ccc(O)cc1)NC(=O)[C@H](CC(=O)O)NC(=O)[C@H](CO)NC(=O)[C@@H](NC(=O)[C@H](Cc1ccccc1)NC(=O)[C@@H](NC(=O)CNC(=O)[C@H](Cc1c[nH]cn1)NC(=O)[C@@H](NC(=O)[C@@H](N)Cc1ccc(O)cc1)[C@@H](C)O)[C@@H](C)O)[C@@H](C)O)C(=O)N[C@@H](CC(=O)O)C(=O)NC(C)(C)C(=O)N[C@@H](C)C(=O)N[C@@H](CCCNC(=N)N)C(=O)N[C@@H](C)C(=O)N[C@@H](CCC(N)=O)C(=O)N[C@@H](CCC(=O)O)C(=O)N[C@@H](Cc1ccccc1)C(=O)N[C@H](C(=O)NC(C)(C)C(=O)N[C@@H](Cc1c[nH]c2ccccc12)C(=O)N[C@@H](CC(C)C)C(=O)N[C@@H](CCC(=O)O)C(=O)N[C@@H](CC(=O)O)C(=O)N[C@@H](CCC(=O)O)C(=O)N1CCC[C@H]1C(=O)N[C@@H](CO)C(=O)N[C@@H](CO)C(=O)NCC(=O)N[C@@H](C)C(=O)N1CCC[C@H]1C(=O)N1CCC[C@H]1C(=O)N1CCC[C@H]1C(=O)N[C@@H](CO)C(=O)O)C(C)C [Compound A64] (H-YTHGTFTSDYSKYLD[Aib]ARAQEFV[Aib]WLEDEPSSGAPPPS-OH; N-terminus assumed) | 20 pM | > 1000 pM
CC(C)C[C@H](NC(=O)[C@H](Cc1ccc(O)cc1)NC(=O)[C@H](CCCCN)NC(=O)[C@H](CO)NC(=O)[C@H](Cc1ccc(O)cc1)NC(=O)[C@H](CC(=O)O)NC(=O)[C@H](CO)NC(=O)[C@@H](NC(=O)[C@H](Cc1ccccc1)NC(=O)[C@@H](NC(=O)CNC(=O)[C@H](Cc1c[nH]cn1)NC(=O)[C@H](CO)NC(=O)[C@@H](N)Cc1ccc(O)cc1)[C@@H](C)O)[C@@H](C)O)C(=O)N[C@@H](CC(=O)O)C(=O)NC(C)(C)C(=O)N[C@@H](C)C(=O)N[C@@H](CCCNC(=N)N)C(=O)N[C@@H](C)C(=O)N[C@@H](CCC(N)=O)C(=O)N[C@@H](CCC(=O)O)C(=O)N[C@@H](Cc1ccccc1)C(=O)N[C@H](C(=O)NC(C)(C)C(=O)N[C@@H](Cc1c[nH]c2ccccc12)C(=O)N[C@@H](CC(C)C)C(=O)N[C@@H](CCC(=O)O)C(=O)N[C@@H](CC(=O)O)C(=O)N[C@@H](CCC(=O)O)C(=O)N1CCC[C@H]1C(=O)N[C@@H](CCCCN)C(=O)N[C@@H](CO)C(=O)N[C@@H](CCCCN)C(=O)N[C@@H](CO)C(=O)N1CCC[C@H]1C(=O)N1CCC[C@H]1C(=O)N1CCC[C@H]1C(=O)N[C@@H](CO)C(N)=O)C(C)C [Compound A67] (H-YSHGTFTSDYSKYLD[Aib]ARAQEFV[Aib]WLEDEPKSKSPPPS-NH2; N-terminus assumed) | 12.6 pM | > 1000 pM
CC(C)C[C@H](NC(=O)[C@H](Cc1ccc(O)cc1)NC(=O)[C@H](CCCCN)NC(=O)[C@H](CO)NC(=O)[C@H](Cc1ccc(O)cc1)NC(=O)[C@H](CC(=O)O)NC(=O)[C@H](CO)NC(=O)[C@@H](NC(=O)[C@H](Cc1ccccc1)NC(=O)[C@@H](NC(=O)CNC(=O)[C@H](Cc1c[nH]cn1)NC(=O)[C@H](CO)NC(=O)[C@@H](N)Cc1ccc(O)cc1)[C@@H](C)O)[C@@H](C)O)C(=O)N[C@@H](CC(=O)O)C(=O)NC(C)(C)C(=O)N[C@@H](C)C(=O)N[C@@H](CCCNC(=N)N)C(=O)N[C@@H](C)C(=O)N[C@@H](CCC(N)=O)C(=O)N[C@@H](CCC(=O)O)C(=O)N[C@@H](Cc1ccccc1)C(=O)N[C@H](C(=O)NC(C)(C)C(=O)N[C@@H](Cc1c[nH]c2ccccc12)C(=O)N[C@@H](CC(C)C)C(=O)N[C@@H](CCC(=O)O)C(=O)N[C@@H](CC(=O)O)C(=O)N[C@@H](CCC(=O)O)C(=O)N1CCC[C@H]1C(=O)N[C@@H](CCCCN)C(=O)N[C@@H](CO)C(=O)N[C@@H](CCCCN)C(=O)N[C@@H](CCC(=O)O)C(=O)N1CCC[C@H]1C(=O)N1CCC[C@H]1C(=O)N1CCC[C@H]1C(=O)N[C@@H](CO)C(N)=O)C(C)C [Compound A68] (H-YSHGTFTSDYSKYLD[Aib]ARAQEFV[Aib]WLEDEPKSKEPPPS-NH2; N-terminus assumed) | 5.01 pM | > 1000 pM

Other lines, results leading:

EC50 (human GCGR) | EC50 (human GLP-1R) | SMILES
1.58 pM | > 1000 pM | CC(C)C[C@H](NC(=O)[C@H](Cc1ccc(O)cc1)NC(=O)[C@H](CCCCN)NC(=O)[C@H](CO)NC(=O)[C@H](Cc1ccc(O)cc1)NC(=O)[C@H](CC(=O)O)NC(=O)[C@H](CO)NC(=O)[C@@H](NC(=O)[C@H](Cc1ccccc1)NC(=O)[C@@H](NC(=O)CNC(=O)[C@H](Cc1c[nH]cn1)NC(=O)[C@H](CO)NC(=O)[C@@H](N)Cc1ccc(O)cc1)[C@@H](C)O)[C@@H](C)O)C(=O)N[C@@H](CC(=O)O)C(=O)N[C@@H](CO)C(=O)N[C@@H](C)C(=O)N[C@@H](CCCNC(=N)N)C(=O)N[C@@H](C)C(=O)N[C@@H](CCC(N)=O)C(=O)N[C@@H](CCC(=O)O)C(=O)N[C@@H](Cc1ccccc1)C(=O)N[C@H](C(=O)N[C@@H](CCCCN)C(=O)N[C@@H](Cc1c[nH]c2ccccc12)C(=O)N[C@@H](CC(C)C)C(=O)N[C@@H](CCC(=O)O)C(=O)N[C@@H](CC(=O)O)C(=O)N[C@@H](CCC(=O)O)C(=O)N1CCC[C@H]1C(=O)N[C@@H](CCCCN)C(=O)N[C@@H](CO)C(=O)N[C@@H](CCCCN)C(=O)N[C@@H](CCC(=O)O)C(=O)N1CCC[C@H]1C(=O)N1CCC[C@H]1C(=O)N1CCC[C@H]1C(=O)N[C@@H](CO)C(=O)O)C(C)C [Compound A69] (H-YSHGTFTSDYSKYLDSARAQEFVKWLEDEPKSKEPPPS-OH; N-terminus assumed)
2 pM | > 1000 pM | CC(C)C[C@H](NC(=O)[C@H](Cc1ccc(O)cc1)NC(=O)[C@H](CCCCN)NC(=O)[C@H](CO)NC(=O)[C@H](Cc1ccc(O)cc1)NC(=O)[C@H](CC(=O)O)NC(=O)[C@H](CO)NC(=O)[C@@H](NC(=O)[C@H](Cc1ccccc1)NC(=O)[C@@H](NC(=O)CNC(=O)[C@H](Cc1c[nH]cn1)NC(=O)[C@H](CO)NC(=O)[C@@H](N)Cc1ccc(O)cc1)[C@@H](C)O)[C@@H](C)O)C(=O)N[C@@H](CC(=O)O)C(=O)N[C@@H](CO)C(=O)N[C@@H](C)C(=O)N[C@@H](CCCNC(=N)N)C(=O)N[C@@H](C)C(=O)N[C@@H](CCC(N)=O)C(=O)N[C@@H](CCC(=O)O)C(=O)N[C@@H](Cc1ccccc1)C(=O)N[C@H](C(=O)N[C@@H](CCCCN)C(=O)N[C@@H](Cc1c[nH]c2ccccc12)C(=O)N[C@@H](CC(C)C)C(=O)N[C@@H](CCC(=O)O)C(=O)N[C@@H](CC(=O)O)C(=O)N[C@@H](CCC(=O)O)C(=O)N1CCC[C@H]1C(=O)N[C@@H](CCCCN)C(=O)N[C@@H](CO)C(=O)N[C@@H](CCCCN)C(=O)N[C@@H](C)C(=O)N1CCC[C@H]1C(=O)N1CCC[C@H]1C(=O)N1CCC[C@H]1C(=O)N[C@@H](CO)C(=O)O)C(C)C [Compound A71] (H-YSHGTFTSDYSKYLDSARAQEFVKWLEDEPKSKAPPPS-OH; N-terminus assumed)
